Here are results for 6 compounds from PubChem BioAssay AID1918933 (Molecular Pharmacology Branch, DTP, NCI, 2023).

Each structure is given as a SMILES string. Several values for one entry are separate records, joined by “and”; a condition that tells them apart may be missing. Identical values can stand only once.

The test system of the test is 186277-243-T-J2-PDC complex spheroid viability. Kind of test: Anticancer human tumor 186277-243-T-J2-PDC patient-derived colon adenocarcinoma cell line growth inhibition. As to conditions: for viability, T/C: stronger effect = lower value. The gist of the method:
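Drug combinations with the LSD1 inhibitor iadademstat tested on tumor cells co-cultured as spheroids with endothelial cells and mesenchymal stem cells. Concentrations descended in half-log increments from clinical Cmax or 10 microM.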

Where [1] appears, read: curve of first compound, second compound 0.1 µM.
Setting [2] is: curve of first compound, second compound 0.316 µM.
Where [3] appears, read: curve of first compound, second compound 1 µM.
The mark [4] stands for this setting: curve of first compound, second compound 3.16 µM.
Setting [5] is: curve of first compound, second compound 10 µM.
[6] abbreviates: second compound 0.1 µM, first compound 0.0316 µM.
[7] abbreviates: second compound 0.1 µM, first compound 0.1 µM.
Setting [8] is: second compound 0.316 µM, first compound 0.0316 µM.
The mark [9] stands for this setting: second compound 0.316 µM, first compound 0.1 µM.
Where [10] appears, read: second compound 1 µM, first compound 0.0316 µM.
Setting [11] is: second compound 1 µM, first compound 0.1 µM.
The mark [12] stands for this setting: second compound 3.16 µM, first compound 0.0316 µM.
The mark [13] stands for this setting: second compound 3.16 µM, first compound 0.1 µM.
[14] abbreviates: second compound 10 µM, first compound 0.0316 µM.
Where [15] appears, read: second compound 10 µM, first compound 0.1 µM.
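Also: 7 day exposure to compounds.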
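For viability, T/C in this document: 100% = DMSO vehicle control viability.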

The term IC50 denotes the concentration that inhibits the measured activity by half. As a reminder, the viability, T/C is the ratio of treated to control. `Nc1ccccc1NC(=O)c1ccc(CNC(=O)OCc2cccnc2)cc1` + NC1CCC(NC2CC2c2ccccc2)CC1: the IC50 stood at 1.41 µM under setting [1]; 1.4 µM under setting [2]; 1.52 µM under setting [3]; 1.38 µM under setting [4]; 1.39 µM under setting [5]. Further, the viability, T/C by setting is: (second compound 0.1 µM, first compound 0.00949 µM) 112%; (second compound 0.1 µM, first compound 0.03 µM) 96.2%; (second compound 0.1 µM, first compound 0.0949 µM) 95.3%; (second compound 0.1 µM, first compound 0.3 µM) 110%; (second compound 0.1 µM, first compound 0.949 µM) 69.6%; (second compound 0.1 µM, first compound 3 µM) 12.5%. Further, the viability, T/C reads like this: (second compound 0.316 µM, first compound 0.00949 µM) 112%; (second compound 0.316 µM, first compound 0.03 µM) 113%; (second compound 0.316 µM, first compound 0.0949 µM) 109%; (second compound 0.316 µM, first compound 0.3 µM) 96.5%; (second compound 0.316 µM, first compound 0.949 µM) 68.7%; (second compound 0.316 µM, first compound 3 µM) 13.5%. In addition, the viability, T/C is 112% (second compound 1 µM, first compound 0.00949 µM); 113% (second compound 1 µM, first compound 0.03 µM); 92.8% (second compound 1 µM, first compound 0.0949 µM); 107% (second compound 1 µM, first compound 0.3 µM); 74.9% (second compound 1 µM, first compound 0.949 µM); 13.7% (second compound 1 µM, first compound 3 µM). Also, the viability, T/C by setting is: (second compound 3.16 µM, first compound 0.00949 µM) 118%; (second compound 3.16 µM, first compound 0.03 µM) 113%; (second compound 3.16 µM, first compound 0.0949 µM) 106%; (second compound 3.16 µM, first compound 0.3 µM) 108%; (second compound 3.16 µM, first compound 0.949 µM) 67.6%; (second compound 3.16 µM, first compound 3 µM) 12.8%. The viability, T/C (second compound 10 µM, first compound 0.00949 µM) is 106%; the viability, T/C (second compound 10 µM, first compound 0.03 µM) was 98.7%; the viability, T/C (second compound 10 µM, first compound 0.0949 µM) is 103%; the viability, T/C (second compound 10 µM, first compound 0.3 µM) is 93.4%; the viability, T/C (second compound 10 µM, first compound 0.949 µM) was 71.1%; the viability, T/C (second compound 10 µM, first compound 3 µM) was 8.04%.

`Nc1ccccc1NC(=O)c1ccc(CNC(=O)OCc2cccnc2)cc1`: the viability, T/C runs as follows: (compound 0.00949 µM) 99.8% and 104%; (compound 0.03 µM) 99.2% and 98.5%; (compound 0.0949 µM) 102% and 106%; (compound 0.3 µM) 88.2% and 103%; (compound 0.949 µM) 64.4% and 20.6%; (compound 3 µM) 14.5% and 1.27%. Moreover, under “curve of compound”, the half-inhibitory concentration (IC50) is 1.31 µM and 0.628 µM.

Regarding `CC1COCCN1c1cc(-c2ccnn2C)c2ccnc(-c3ccn[nH]3)c2n1` (stereo unspecified), the viability, T/C by setting is: (compound 0.00316 µM) 77.4% and 18.2%; (compound 0.01 µM) 30.1% and 14%; (compound 0.0316 µM) 11.1% and 8.92%; (compound 0.1 µM) 9.14% and 7.83%; (compound 0.316 µM) 10.1% and 8.98%; (compound 1 µM) 11.4% and 7.8%. In addition, the IC50 (curve of compound) was 0.00615 µM and < 0.00316 µM.

Regarding `COc1ccc([C@@H](O)c2cc(-c3ncnc4cc(N5CCOCC5)ccc34)c(F)cc2Cl)nn1`, the viability, T/C is 103% and 101% (compound 0.0316 µM); 104% and 100% (compound 0.1 µM); 87.8% and 101% (compound 0.316 µM); 84.4% and 100% (compound 1 µM); 46.7% and 64.8% (compound 3.16 µM); 3.51% and 12.2% (compound 10 µM). For the setting “curve of compound”, the half-maximal inhibitory concentration (IC50) is 2.97 µM and 4.37 µM.

For `CC1(C)CCC(CN2CCN(c3ccc(C(=O)NS(=O)(=O)c4ccc(NCC5CCOCC5)c([N+](=O)[O-])c4)c(Oc4cnc5[nH]ccc5c4)c3)CC2)=C(c2ccc(Cl)cc2)C1` + NC1CCC(NC2CC2c2ccccc2)CC1, the IC50 runs as follows: under setting [1], 4.91 µM; under setting [2], 4.97 µM; under setting [3], 5.12 µM; under setting [4], 5.04 µM; under setting [5], 4.57 µM. Further, the viability, T/C by setting is: under setting [6], 92%; under setting [7], 114%; (second compound 0.1 µM, first compound 0.316 µM) 101%; (second compound 0.1 µM, first compound 1 µM) 97.7%; (second compound 0.1 µM, first compound 3.16 µM) 73.5%; (second compound 0.1 µM, first compound 10 µM) 12%. Further, the viability, T/C runs as follows: under setting [8], 106%; under setting [9], 117%; (second compound 0.316 µM, first compound 0.316 µM) 99.4%; (second compound 0.316 µM, first compound 1 µM) 109%; (second compound 0.316 µM, first compound 3.16 µM) 74.9%; (second compound 0.316 µM, first compound 10 µM) 11.5%. The viability, T/C is, setting by setting: under setting [10], 100%; under setting [11], 105%; (second compound 1 µM, first compound 0.316 µM) 106%; (second compound 1 µM, first compound 1 µM) 101%; (second compound 1 µM, first compound 3.16 µM) 77.9%; (second compound 1 µM, first compound 10 µM) 11.3%. The viability, T/C under setting [12] is 107%; the viability, T/C under setting [13] was 107%; the viability, T/C (second compound 3.16 µM, first compound 0.316 µM) is 115%; the viability, T/C (second compound 3.16 µM, first compound 1 µM) was 95.8%; the viability, T/C (second compound 3.16 µM, first compound 3.16 µM) is 79.2%; the viability, T/C (second compound 3.16 µM, first compound 10 µM) was 8.73%. Moreover, the viability, T/C under setting [14] was 98.9%; the viability, T/C under setting [15] is 107%; the viability, T/C (second compound 10 µM, first compound 0.316 µM) was 96.6%; the viability, T/C (second compound 10 µM, first compound 1 µM) is 97.6%; the viability, T/C (second compound 10 µM, first compound 3.16 µM) is 69.1%; the viability, T/C (second compound 10 µM, first compound 10 µM) is 9.39%.

Take `CC(C)CC(NC(=O)C(Cc1ccccc1)NC(=O)c1cnccn1)B(O)O` (stereo unspecified) + NC1CC1c1ccc(-c2cccc(O)c2)cc1: the 50% inhibitory concentration (IC50) worked out at 0.000601 µM under setting [1]; 0.000547 µM under setting [2]; 0.000548 µM under setting [3]; 0.00057 µM under setting [4]; 0.000557 µM under setting [5]. For the same compound, the viability, T/C reads like this: (second compound 0.1 µM, first compound 0.000316 µM) 108%; (second compound 0.1 µM, first compound 0.001 µM) 3.98%; (second compound 0.1 µM, first compound 0.00316 µM) 0.06%; (second compound 0.1 µM, first compound 0.01 µM) 0.02%; under setting [6], 0.02%; under setting [7], 0.12%. Moreover, the viability, T/C was 94.1% (second compound 0.316 µM, first compound 0.000316 µM); 1.53% (second compound 0.316 µM, first compound 0.001 µM); 0.04% (second compound 0.316 µM, first compound 0.00316 µM); 0.01% (second compound 0.316 µM, first compound 0.01 µM); 0.37% under setting [8]; 0.1% under setting [9]. Besides, the viability, T/C was 94.3% (second compound 1 µM, first compound 0.000316 µM); 1.48% (second compound 1 µM, first compound 0.001 µM); 0.05% (second compound 1 µM, first compound 0.00316 µM); 0.02% (second compound 1 µM, first compound 0.01 µM); 0.07% under setting [10]; 0.1% under setting [11]. For the same compound, the viability, T/C is 101% (second compound 3.16 µM, first compound 0.000316 µM); 1.66% (second compound 3.16 µM, first compound 0.001 µM); 0.06% (second compound 3.16 µM, first compound 0.00316 µM); 0.02% (second compound 3.16 µM, first compound 0.01 µM); 0.64% under setting [12]; 0.74% under setting [13]. The viability, T/C by setting is: (second compound 10 µM, first compound 0.000316 µM) 97.9%; (second compound 10 µM, first compound 0.001 µM) 0.65%; (second compound 10 µM, first compound 0.00316 µM) 0.13%; (second compound 10 µM, first compound 0.01 µM) 0.2%; under setting [14], 0.13%; under setting [15], 0.89%.
